Calls of active or inactive are those of the source. The calls are words filed in the database; no cut-off is given here.
Key:
Escherichia coli [1] = experiment: Potentiation of erythromycin-induced antibacterial activity against wild type Escherichia coli BW25113 assessed as erythromycin MIC at 256 ug/ml incubated for 18 hrs under aerobic condition by checkerboard titration assay (reference value: 128 ug/ml); type: functional; conditions: dose 256 µg/ml
Escherichia coli [2] = experiment: Potentiation of erythromycin-induced antibacterial activity against wild type Escherichia coli BW25113 assessed as erythromycin MIC at 512 ug/ml incubated for 18 hrs under aerobic condition by checkerboard titration assay (reference value: 128 ug/ml); type: functional; conditions: dose 512 µg/ml
Escherichia coli [3] = experiment: Potentiation of TPP-induced antibacterial activity against AcrB deficient Escherichia coli BW25113 assessed as TPP MIC at 512 ug/ml incubated for 18 hrs under aerobic condition by checkerboard titration assay (reference value: 256 ug/ml); type: functional; conditions: dose 512 µg/ml
Escherichia coli [4] = experiment: Potentiation of chloramphenicol-induced antibacterial activity against AcrB deficient Escherichia coli BW25113 assessed as chloramphenicol MIC at 512 ug/ml incubated for 18 hrs under aerobic condition by checkerboard titration assay (reference value: 2 ug/ml); type: functional; conditions: dose 512 µg/ml
Escherichia coli [5] = experiment: Potentiation of chloramphenicol-induced antibacterial activity against wild type Escherichia coli BW25113 assessed as chloramphenicol MIC at 512 ug/ml incubated for 18 hrs under aerobic condition by checkerboard titration assay (reference value: 16 ug/ml); type: functional; conditions: dose 512 µg/ml
Escherichia coli [6] = experiment: Potentiation of chloramphenicol-induced antibacterial activity against wild type Escherichia coli BW25113 assessed as chloramphenicol MIC at 256 ug/ml incubated for 18 hrs under aerobic condition by checkerboard titration assay (reference value: 16 ug/ml); type: functional; conditions: dose 256 µg/ml
Escherichia coli [7] = experiment: Potentiation of rifampicin-induced antibacterial activity against wild type Escherichia coli BW25113 assessed as rifampicin MIC at 256 ug/ml incubated for 18 hrs under aerobic condition by checkerboard titration assay (reference value: 16 ug/ml); type: functional; conditions: dose 256 µg/ml
Escherichia coli [8] = experiment: Potentiation of TPP-induced antibacterial activity against wild type Escherichia coli BW25113 assessed as TPP MIC at 256 ug/ml incubated for 18 hrs under aerobic condition by checkerboard titration assay (reference value: 1024 ug/ml); type: functional; conditions: dose 256 µg/ml
Escherichia coli [9] = experiment: (§1) Antibacterial activity against Wild type Escherichia coli BW25113 assessed as inhibition of AcrB efflux pump by mesuring the glucose-induced nile red efflux at 100 uM preincubated with CCCP for 15 mins followed by compound addition after 15 mins nile red added and incubated for 3 hrs in shaker by fluorimetric analysis; type: functional, organism-based; conditions: time 195.0 min
Escherichia coli [10] = experiment: Potentiation of erythromycin-induced antibacterial activity against AcrB deficient Escherichia coli BW25113 assessed as erythromycin MIC at 512 ug/ml incubated for 18 hrs under aerobic condition by checkerboard titration assay (reference value: 32 ug/ml); type: functional; conditions: dose 512 µg/ml
Escherichia coli [11] = experiment: Potentiation of TPP-induced antibacterial activity against wild type Escherichia coli BW25113 assessed as TPP MIC at 512 ug/ml incubated for 18 hrs under aerobic condition by checkerboard titration assay (reference value: 1024 ug/ml); type: functional; conditions: dose 512 µg/ml
Cell membrane [12] = experiment: Disruption of inner membrane potential in wild type Escherichia coli BW25113 at 512 ug/ml preincubated for 10 mins followed by glucose stimulation and CCCP addition by DiOC2 probe based fluorimetric analysis; type: subcellular; conditions: dose 512.0 µg/ml
Escherichia coli [13] = experiment: Potentiation of erythromycin-induced antibacterial activity against AcrB deficient Escherichia coli BW25113 assessed as erythromycin MIC at 256 ug/ml incubated for 18 hrs under aerobic condition by checkerboard titration assay (reference value: 32 ug/ml); type: functional; conditions: dose 256 µg/ml
Escherichia coli [14] = experiment: Potentiation of erythromycin-induced antibacterial activity against wild type Escherichia coli BW25113 assessed as erythromycin MIC at 128 ug/ml incubated for 18 hrs under aerobic condition by checkerboard titration assay (reference value: 128 ug/ml); type: functional; conditions: dose 128 µg/ml
Escherichia coli [15] = experiment: Potentiation of TPP-induced antibacterial activity against AcrB deficient Escherichia coli BW25113 assessed as TPP MIC at 256 ug/ml incubated for 18 hrs under aerobic condition by checkerboard titration assay (reference value: 256 ug/ml); type: functional; conditions: dose 256 µg/ml
Escherichia coli [16] = experiment: Potentiation of TPP-induced antibacterial activity against wild type Escherichia coli BW25113 assessed as TPP MIC at 128 ug/ml incubated for 18 hrs under aerobic condition by checkerboard titration assay (reference value: 1024 ug/ml); type: functional; conditions: dose 128 µg/ml
Escherichia coli [17] = experiment: Potentiation of rifampicin-induced antibacterial activity against wild type Escherichia coli BW25113 assessed as rifampicin MIC at 128 ug/ml incubated for 18 hrs under aerobic condition by checkerboard titration assay (reference value: 16 ug/ml); type: functional; conditions: dose 128 µg/ml
Cell membrane [18] = experiment: Induction of outer membrane permeabilization in wild type Escherichia coli BW25113 assessed as increase in nitrocefin hydrolysis at 512 ug/ml measured for 30 mins in presence of CCCP by spectrophotometry analysis; type: subcellular; conditions: dose 512.0 µg/ml
Escherichia coli [19] = experiment: Potentiation of chloramphenicol-induced antibacterial activity against wild type Escherichia coli BW25113 assessed as chloramphenicol MIC at 128 ug/ml incubated for 18 hrs under aerobic condition by checkerboard titration assay (reference value: 16 ug/ml); type: functional; conditions: dose 128 µg/ml
Escherichia coli [20] = experiment: as §1, with “500” for “100”; type: functional, organism-based; conditions: time 195.0 min
Escherichia coli [21] = experiment: Potentiation of chloramphenicol-induced antibacterial activity against AcrB deficient Escherichia coli BW25113 assessed as chloramphenicol MIC at 256 ug/ml incubated for 18 hrs under aerobic condition by checkerboard titration assay (reference value: 2 ug/ml); type: functional; conditions: dose 256 µg/ml
Escherichia coli [22] = experiment: Potentiation of TPP-induced antibacterial activity against wild type Escherichia coli BW25113 assessed as fold reduction in TPP MIC at 256 ug/ml incubated for 18 hrs under aerobic condition by checkerboard titration assay relative to TPP MIC alone; type: functional; conditions: dose 256 µg/ml
Escherichia coli [23] = experiment: Potentiation of rifampicin-induced antibacterial activity against wild type Escherichia coli BW25113 assessed as rifampicin MIC at 512 ug/ml incubated for 18 hrs under aerobic condition by checkerboard titration assay (reference value: 16 ug/ml); type: functional; conditions: dose 512 µg/ml
Escherichia coli [24] = experiment: Potentiation of chloramphenicol-induced antibacterial activity against wild type Escherichia coli BW25113 assessed as fold reduction in chloramphenicol MIC at 512 ug/ml incubated for 18 hrs under aerobic condition by checkerboard titration assay relative to chloramphenicol MIC alone; type: functional; conditions: dose 512 µg/ml
Escherichia coli [25] = experiment: Antibacterial activity against AcrB deficient Escherichia coli BW25113 assessed as inhibition of bacterial growth at 256 ug/ml after 18 hrs by microtitre broth dilution assay; type: functional, organism-based; conditions: dose 256.0 µg/ml
Escherichia coli [26] = experiment: Antibacterial activity against wild type Escherichia coli BW25113 assessed as inhibition of bacterial growth at 256 ug/ml after 18 hrs by microtitre broth dilution assay; type: functional, organism-based; conditions: dose 256.0 µg/ml
Escherichia coli [27] = experiment: Potentiation of erythromycin-induced antibacterial activity against AcrB deficient Escherichia coli BW25113 assessed as erythromycin MIC at 32 ug/ml incubated for 18 hrs under aerobic condition by checkerboard titration assay (reference value: 32 ug/ml); type: functional; conditions: dose 32 µg/ml
Escherichia coli [28] = experiment: Potentiation of chloramphenicol-induced antibacterial activity against AcrB deficient Escherichia coli BW25113 assessed as chloramphenicol MIC at 32 ug/ml incubated for 18 hrs under aerobic condition by checkerboard titration assay (reference value: 2 ug/ml); type: functional; conditions: dose 32 µg/ml
Escherichia coli [29] = experiment: Potentiation of TPP-induced antibacterial activity against AcrB deficient Escherichia coli BW25113 assessed as TPP MIC at 32 ug/ml incubated for 18 hrs under aerobic condition by checkerboard titration assay (reference value: 256 ug/ml); type: functional; conditions: dose 32 µg/ml
Escherichia coli [30] = experiment: Potentiation of chloramphenicol-induced antibacterial activity against wild type Escherichia coli BW25113 assessed as fold reduction in chloramphenicol MIC at 256 ug/ml incubated for 18 hrs under aerobic condition by checkerboard titration assay relative to chloramphenicol MIC alone; type: functional; conditions: dose 256 µg/ml
Escherichia coli [31] = experiment: Potentiation of TPP-induced antibacterial activity against AcrB deficient Escherichia coli BW25113 assessed as TPP MIC at 128 ug/ml incubated for 18 hrs under aerobic condition by checkerboard titration assay (reference value: 256 ug/ml); type: functional; conditions: dose 128 µg/ml
Escherichia coli [32] = experiment: Potentiation of erythromycin-induced antibacterial activity against wild type Escherichia coli BW25113 assessed as fold reduction in erythromycin MIC at 128 ug/ml incubated for 18 hrs under aerobic condition by checkerboard titration assay relative to erythromycin MIC alone; type: functional; conditions: dose 128 µg/ml
Escherichia coli [33] = experiment: Potentiation of chloramphenicol-induced antibacterial activity against wild type Escherichia coli BW25113 assessed as fold reduction in chloramphenicol MIC at 128 ug/ml incubated for 18 hrs under aerobic condition by checkerboard titration assay relative to chloramphenicol MIC alone; type: functional; conditions: dose 128 µg/ml
Escherichia coli [34] = experiment: Potentiation of chloramphenicol-induced antibacterial activity against AcrB deficient Escherichia coli BW25113 assessed as chloramphenicol MIC at 128 ug/ml incubated for 18 hrs under aerobic condition by checkerboard titration assay (reference value: 2 ug/ml); type: functional; conditions: dose 128 µg/ml
Escherichia coli [35] = experiment: Potentiation of erythromycin-induced antibacterial activity against AcrB deficient Escherichia coli BW25113 assessed as erythromycin MIC at 128 ug/ml incubated for 18 hrs under aerobic condition by checkerboard titration assay (reference value: 32 ug/ml); type: functional; conditions: dose 128 µg/ml

| SMILES | MIC (Escherichia coli [1]) [µg/mL] | MIC (Escherichia coli [2]) [µg/mL] | MIC (Escherichia coli [3]) [µg/mL] | MIC (Escherichia coli [4]) [µg/mL] | MIC (Escherichia coli [5]) [µg/mL] | MIC (Escherichia coli [6]) [µg/mL] | MIC (Escherichia coli [7]) [µg/mL] | MIC (Escherichia coli [8]) [µg/mL] | MIC (Escherichia coli [10]) [µg/mL] | MIC (Escherichia coli [11]) [µg/mL] | Activity (Cell membrane [12]) | MIC (Escherichia coli [13]) [µg/mL] | MIC (Escherichia coli [14]) [µg/mL] | MIC (Escherichia coli [15]) [µg/mL] | MIC (Escherichia coli [16]) [µg/mL] | MIC (Escherichia coli [17]) [µg/mL] | Activity (Cell membrane [18]) | MIC (Escherichia coli [19]) [µg/mL] | Activity (Escherichia coli [20]) | MIC (Escherichia coli [21]) [µg/mL] | also measured |
| --- | --- | --- | --- | --- | --- | --- | --- | --- | --- | --- | --- | --- | --- | --- | --- | --- | --- | --- | --- | --- | --- |
| O=C(NC1CCCCC1)c1cc(OCc2ccccc2)c2ccccc2c1 | 64 | 32 | 256 | 2 | 16 | 16 | 16 | 1020 | 32 | 1020 |  |  |  |  |  |  |  |  |  |  | Activity (Escherichia coli [9]): Active |
| O=C(NCc1ccccc1Cl)c1cc(OCc2ccccc2)c2ccccc2c1 | 64 |  |  |  |  | 4 | 4 | 256 |  |  | Active | 32 | 128 | 256 | 1020 | 16 | Active | 16 | Active | 2 | fold change (FC) (Escherichia coli [22]): 4 |
| O=C(Nc1ccccc1)c1cc(OCc2ccccc2)c2ccccc2c1 | 128 | 128 |  |  | 16 | 16 | 16 | 1020 |  | 512 | Active |  |  | 256 |  |  | Active |  | Active | 2 | MIC (Escherichia coli [23]): 8 µg/mL |
| CC(C)CCOc1cc(C(N)=O)cc2ccccc12 | 64 | 32 | 256 | 2 | 4 | 8 | 16 | 512 | 32 | 256 |  |  |  |  |  |  |  |  |  |  | MIC (Escherichia coli [23]): 16 µg/mL |
| O=C(Nc1ccccc1C(F)(F)F)c1cc(OCc2ccccc2)c2ccccc2c1 | 128 | 128 |  | 0.5 | 2 | 8 | 16 | 1020 | 16 | 1020 |  |  |  |  |  |  |  |  |  |  | fold change (FC) (Escherichia coli [24]): 8 |
| NC(=O)c1cc(OCCNCc2ccco2)c2ccccc2c1 | 128 |  |  |  |  | 16 | 16 | 512 |  |  | inactive | 16 | 128 | 256 | 1020 | 16 | Active | 16 |  | 1 | Activity (Escherichia coli [25]): Active; Activity (Escherichia coli [26]): inactive |
| CC(C)CCOc1cc(C(=O)NCCc2ccccc2)cc2ccccc12 | 32 |  |  |  |  | 4 | 16 | 1020 |  |  | inactive |  | 64 |  | 1020 | 16 | inactive | 8 | inactive |  | MIC (Escherichia coli [27]): 2 µg/mL; MIC (Escherichia coli [28]): 2 µg/mL; MIC (Escherichia coli [29]): 32 µg/mL |
| NC(=O)c1cc(OCCNCc2ccc(O)cc2)c2ccccc2c1 | 128 |  |  |  |  | 4 | 8 | 256 |  |  | inactive | 32 | 128 | 256 | 1020 | 8 | inactive | 8 | inactive | 2 | fold change (FC) (Escherichia coli [22]): 4; fold change (FC) (Escherichia coli [30]): 4 |
| NC(=O)c1cc(OCCNC2CCCCC2)c2ccccc2c1 |  |  |  |  |  |  |  |  |  |  | inactive | 8 | 16 | 128 | 1020 | 8 | Active | 4 |  | 1 | MIC (Escherichia coli [31]): 256 µg/mL; Activity (Escherichia coli [25]): Active; fold change (FC) (Escherichia coli [32]): 8; fold change (FC) (Escherichia coli [33]): 8; Activity (Escherichia coli [26]): Active; Activity (Escherichia coli [9]): Active; MIC (Escherichia coli [34]): 2 µg/mL; MIC (Escherichia coli [35]): 16 µg/mL |
| CCCCCCNC(=O)c1cc(OCc2ccccc2)c2ccccc2c1 | 128 |  | 256 | 2 |  | 4 | 4 | 256 |  |  | Active |  | 128 |  | 1020 | 16 | Active | 8 |  |  | fold change (FC) (Escherichia coli [22]): 4 |
